# From PMC11864979, “First-in-class ultralong-target-residence-time p38α inhibitors as a mitosis-targeted therapy for colorectal cancer” (Nature Cancer, 2025)
# Read-outs that look alike come from different tables or passages of the source.
# How the values were obtained:
# Experiment in all cases: selectivity profiling in a panel of 340 wild-type kinases (Reaction Biology Europe)
# Type in all cases: binding
# 340 wild-type kinases [1] = molecular target: T1, 340 wild-type kinases (Homo sapiens, UniProt O75676)
# T1 construct: purchased Reaction Biology Europe
# 340 wild-type kinases [2] = molecular target: T2, 340 wild-type kinases (Homo sapiens, UniProt Q16584)
# T2 construct: purchased Reaction Biology Europe
# 340 wild-type kinases [3] = molecular target: T3, 340 wild-type kinases (Homo sapiens, UniProt P16591)
# T3 construct: purchased Reaction Biology Europe
# 340 wild-type kinases [4] = molecular target: T4, 340 wild-type kinases (Homo sapiens, UniProt O60674)
# T4 construct: purchased Reaction Biology Europe
# 340 wild-type kinases [5] = molecular target: T5, 340 wild-type kinases (Homo sapiens, UniProt P10398, Y301D/Y302D)
# T5 construct: purchased Reaction Biology Europe
# T5 sequence (P10398 1-606 Y301D/Y302D): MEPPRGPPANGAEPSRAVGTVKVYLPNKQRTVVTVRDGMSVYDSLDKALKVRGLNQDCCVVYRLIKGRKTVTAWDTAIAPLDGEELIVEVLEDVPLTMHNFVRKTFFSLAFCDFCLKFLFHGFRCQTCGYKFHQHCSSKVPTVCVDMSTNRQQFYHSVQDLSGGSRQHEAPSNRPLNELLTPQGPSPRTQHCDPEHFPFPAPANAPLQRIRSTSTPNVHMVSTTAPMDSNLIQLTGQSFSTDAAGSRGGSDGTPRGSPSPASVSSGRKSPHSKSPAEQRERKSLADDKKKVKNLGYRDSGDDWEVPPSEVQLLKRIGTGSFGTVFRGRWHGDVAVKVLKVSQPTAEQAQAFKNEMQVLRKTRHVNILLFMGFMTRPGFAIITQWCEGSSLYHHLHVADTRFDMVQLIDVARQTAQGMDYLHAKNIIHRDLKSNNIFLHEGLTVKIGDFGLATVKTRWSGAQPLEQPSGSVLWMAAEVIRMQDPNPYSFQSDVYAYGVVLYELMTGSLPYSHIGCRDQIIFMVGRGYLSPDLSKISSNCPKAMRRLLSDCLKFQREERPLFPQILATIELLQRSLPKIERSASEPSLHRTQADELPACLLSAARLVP
# 340 wild-type kinases [6] = molecular target: T6, 340 wild-type kinases (Homo sapiens, UniProt Q02156)
# T6 construct: purchased Reaction Biology Europe
# T6 sequence (Q02156 1-737): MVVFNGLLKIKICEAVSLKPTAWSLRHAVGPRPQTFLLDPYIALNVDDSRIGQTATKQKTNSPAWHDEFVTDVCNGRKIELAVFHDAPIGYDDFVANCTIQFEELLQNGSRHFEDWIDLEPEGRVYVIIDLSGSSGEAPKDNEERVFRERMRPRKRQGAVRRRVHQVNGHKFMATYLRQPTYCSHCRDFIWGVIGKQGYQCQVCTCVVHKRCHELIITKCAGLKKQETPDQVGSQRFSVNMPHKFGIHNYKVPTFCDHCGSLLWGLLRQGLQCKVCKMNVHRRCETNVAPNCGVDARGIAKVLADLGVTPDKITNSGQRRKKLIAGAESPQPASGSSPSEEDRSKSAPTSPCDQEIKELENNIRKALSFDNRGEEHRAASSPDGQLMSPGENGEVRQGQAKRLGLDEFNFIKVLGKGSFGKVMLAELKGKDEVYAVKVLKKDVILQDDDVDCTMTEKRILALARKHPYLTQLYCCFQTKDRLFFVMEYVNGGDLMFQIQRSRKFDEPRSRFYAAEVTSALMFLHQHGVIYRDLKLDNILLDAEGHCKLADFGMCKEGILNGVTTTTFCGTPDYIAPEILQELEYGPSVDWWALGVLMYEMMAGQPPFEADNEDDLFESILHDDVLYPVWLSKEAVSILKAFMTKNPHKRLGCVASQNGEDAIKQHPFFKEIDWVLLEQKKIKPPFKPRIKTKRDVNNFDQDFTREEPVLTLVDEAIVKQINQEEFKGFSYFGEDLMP
# 340 wild-type kinases [7] = molecular target: T7, 340 wild-type kinases (Homo sapiens, UniProt P32298)
# T7 construct: purchased Reaction Biology Europe
# 340 wild-type kinases [8] = molecular target: T8, 340 wild-type kinases (Homo sapiens, UniProt Q15131)
# T8 construct: purchased Reaction Biology Europe
# 340 wild-type kinases [9] = molecular target: T9, 340 wild-type kinases (Homo sapiens, UniProt Q15303)
# T9 construct: purchased Reaction Biology Europe
# 340 wild-type kinases [10] = molecular target: T10, 340 wild-type kinases (Homo sapiens, UniProt P68400)
# T10 construct: purchased Reaction Biology Europe
# 340 wild-type kinases [11] = molecular target: T11, 340 wild-type kinases (Homo sapiens, UniProt Q13557)
# T11 construct: purchased Reaction Biology Europe
# T11 sequence (Q13557 whole entry): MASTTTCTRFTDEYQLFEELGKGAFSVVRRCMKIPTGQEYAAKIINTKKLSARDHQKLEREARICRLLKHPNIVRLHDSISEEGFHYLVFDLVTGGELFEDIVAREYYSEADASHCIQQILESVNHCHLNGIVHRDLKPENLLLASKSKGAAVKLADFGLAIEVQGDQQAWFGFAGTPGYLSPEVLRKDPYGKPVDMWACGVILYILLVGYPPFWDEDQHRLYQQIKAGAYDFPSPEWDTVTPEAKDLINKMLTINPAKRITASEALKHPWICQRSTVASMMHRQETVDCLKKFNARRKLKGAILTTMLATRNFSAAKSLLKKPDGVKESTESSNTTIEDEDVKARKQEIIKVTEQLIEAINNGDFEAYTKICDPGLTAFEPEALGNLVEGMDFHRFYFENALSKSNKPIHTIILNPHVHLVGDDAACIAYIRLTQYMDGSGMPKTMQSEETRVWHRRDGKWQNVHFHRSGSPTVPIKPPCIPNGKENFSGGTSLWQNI
# T1 sequence (O75676 whole entry): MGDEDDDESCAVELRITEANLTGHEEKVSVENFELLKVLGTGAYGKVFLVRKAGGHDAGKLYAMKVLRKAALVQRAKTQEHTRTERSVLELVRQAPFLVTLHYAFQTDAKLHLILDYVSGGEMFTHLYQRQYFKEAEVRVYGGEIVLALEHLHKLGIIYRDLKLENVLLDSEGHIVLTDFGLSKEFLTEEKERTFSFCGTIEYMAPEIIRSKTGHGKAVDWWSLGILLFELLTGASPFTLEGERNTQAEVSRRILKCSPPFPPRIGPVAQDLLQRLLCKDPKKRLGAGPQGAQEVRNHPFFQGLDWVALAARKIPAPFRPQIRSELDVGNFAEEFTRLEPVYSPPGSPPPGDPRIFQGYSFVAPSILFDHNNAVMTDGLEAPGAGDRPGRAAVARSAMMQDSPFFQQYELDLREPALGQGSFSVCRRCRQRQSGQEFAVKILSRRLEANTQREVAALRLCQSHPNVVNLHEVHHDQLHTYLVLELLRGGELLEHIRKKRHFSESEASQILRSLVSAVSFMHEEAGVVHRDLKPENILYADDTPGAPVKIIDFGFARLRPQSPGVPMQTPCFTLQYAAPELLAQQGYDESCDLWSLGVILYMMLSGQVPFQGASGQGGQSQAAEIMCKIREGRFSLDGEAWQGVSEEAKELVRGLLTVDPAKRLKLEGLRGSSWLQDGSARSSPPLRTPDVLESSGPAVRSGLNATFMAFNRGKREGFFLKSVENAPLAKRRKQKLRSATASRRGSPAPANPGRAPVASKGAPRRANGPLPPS
# T2 sequence (Q16584 whole entry): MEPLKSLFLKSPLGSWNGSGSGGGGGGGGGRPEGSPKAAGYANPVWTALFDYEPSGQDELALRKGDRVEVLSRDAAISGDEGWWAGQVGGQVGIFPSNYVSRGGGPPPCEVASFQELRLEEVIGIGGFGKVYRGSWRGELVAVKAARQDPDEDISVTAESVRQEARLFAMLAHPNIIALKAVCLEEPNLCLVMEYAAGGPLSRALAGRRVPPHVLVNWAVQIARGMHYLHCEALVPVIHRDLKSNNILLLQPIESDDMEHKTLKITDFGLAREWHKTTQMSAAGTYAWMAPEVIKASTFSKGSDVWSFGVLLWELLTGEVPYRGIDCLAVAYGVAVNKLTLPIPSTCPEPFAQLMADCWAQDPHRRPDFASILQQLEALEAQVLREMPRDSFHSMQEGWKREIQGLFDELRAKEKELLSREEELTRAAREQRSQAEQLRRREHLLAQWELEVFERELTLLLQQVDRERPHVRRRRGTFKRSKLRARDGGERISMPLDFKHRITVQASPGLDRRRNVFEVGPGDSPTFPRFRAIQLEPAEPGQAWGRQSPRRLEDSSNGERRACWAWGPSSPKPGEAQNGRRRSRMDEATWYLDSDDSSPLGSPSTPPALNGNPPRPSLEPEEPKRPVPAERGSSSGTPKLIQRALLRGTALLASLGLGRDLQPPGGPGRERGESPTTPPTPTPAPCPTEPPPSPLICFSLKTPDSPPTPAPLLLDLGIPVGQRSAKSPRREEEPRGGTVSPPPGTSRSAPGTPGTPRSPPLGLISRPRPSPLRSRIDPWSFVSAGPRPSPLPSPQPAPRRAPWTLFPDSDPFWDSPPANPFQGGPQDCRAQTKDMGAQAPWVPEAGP
# T9 sequence (Q15303 26-1308): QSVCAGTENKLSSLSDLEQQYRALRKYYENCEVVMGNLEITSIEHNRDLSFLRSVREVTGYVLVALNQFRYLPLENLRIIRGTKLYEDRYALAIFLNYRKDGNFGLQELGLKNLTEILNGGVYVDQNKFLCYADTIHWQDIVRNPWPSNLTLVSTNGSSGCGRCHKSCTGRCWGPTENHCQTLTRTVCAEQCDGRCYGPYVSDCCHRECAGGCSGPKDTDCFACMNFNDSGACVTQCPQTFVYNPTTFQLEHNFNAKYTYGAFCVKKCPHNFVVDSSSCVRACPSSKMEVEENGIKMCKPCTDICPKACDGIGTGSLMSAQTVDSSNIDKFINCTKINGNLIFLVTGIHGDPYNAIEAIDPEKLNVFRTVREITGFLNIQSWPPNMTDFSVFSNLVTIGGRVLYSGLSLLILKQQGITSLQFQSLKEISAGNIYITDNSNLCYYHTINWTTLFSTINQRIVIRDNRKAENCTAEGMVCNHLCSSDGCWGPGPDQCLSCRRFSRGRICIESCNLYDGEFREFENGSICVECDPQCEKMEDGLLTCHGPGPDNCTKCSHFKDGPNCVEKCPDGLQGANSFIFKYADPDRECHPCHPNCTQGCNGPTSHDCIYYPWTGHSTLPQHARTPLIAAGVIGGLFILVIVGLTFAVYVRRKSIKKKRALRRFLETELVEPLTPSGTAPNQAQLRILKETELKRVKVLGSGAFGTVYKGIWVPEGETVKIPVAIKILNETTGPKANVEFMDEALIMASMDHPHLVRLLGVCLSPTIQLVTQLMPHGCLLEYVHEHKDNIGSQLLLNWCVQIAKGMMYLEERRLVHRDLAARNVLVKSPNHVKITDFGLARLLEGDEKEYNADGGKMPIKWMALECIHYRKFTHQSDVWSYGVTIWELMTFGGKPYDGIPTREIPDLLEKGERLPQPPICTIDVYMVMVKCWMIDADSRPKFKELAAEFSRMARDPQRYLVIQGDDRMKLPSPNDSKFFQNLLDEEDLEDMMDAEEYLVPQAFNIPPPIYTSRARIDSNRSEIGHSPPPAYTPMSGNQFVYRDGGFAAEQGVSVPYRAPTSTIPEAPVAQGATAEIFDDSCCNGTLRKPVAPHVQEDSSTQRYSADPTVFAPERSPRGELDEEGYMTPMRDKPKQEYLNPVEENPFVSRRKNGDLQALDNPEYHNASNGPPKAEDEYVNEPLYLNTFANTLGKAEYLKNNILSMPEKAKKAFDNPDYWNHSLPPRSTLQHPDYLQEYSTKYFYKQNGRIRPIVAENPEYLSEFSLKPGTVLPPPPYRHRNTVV
# T7 sequence (P32298 whole entry): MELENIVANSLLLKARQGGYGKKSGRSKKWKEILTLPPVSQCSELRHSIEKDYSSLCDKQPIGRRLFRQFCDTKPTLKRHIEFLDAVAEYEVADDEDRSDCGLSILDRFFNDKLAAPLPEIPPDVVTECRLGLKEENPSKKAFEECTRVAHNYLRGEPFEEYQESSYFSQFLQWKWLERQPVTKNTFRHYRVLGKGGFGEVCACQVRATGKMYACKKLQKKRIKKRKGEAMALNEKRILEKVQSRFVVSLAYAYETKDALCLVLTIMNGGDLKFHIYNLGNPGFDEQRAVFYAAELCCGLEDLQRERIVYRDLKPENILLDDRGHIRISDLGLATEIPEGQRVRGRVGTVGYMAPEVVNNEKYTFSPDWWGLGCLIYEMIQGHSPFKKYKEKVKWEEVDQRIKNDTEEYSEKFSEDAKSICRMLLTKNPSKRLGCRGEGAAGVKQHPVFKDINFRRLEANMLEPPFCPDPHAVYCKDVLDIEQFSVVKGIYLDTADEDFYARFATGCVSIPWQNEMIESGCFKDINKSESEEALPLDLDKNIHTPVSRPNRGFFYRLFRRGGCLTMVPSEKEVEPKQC
# T3 sequence (P16591 whole entry): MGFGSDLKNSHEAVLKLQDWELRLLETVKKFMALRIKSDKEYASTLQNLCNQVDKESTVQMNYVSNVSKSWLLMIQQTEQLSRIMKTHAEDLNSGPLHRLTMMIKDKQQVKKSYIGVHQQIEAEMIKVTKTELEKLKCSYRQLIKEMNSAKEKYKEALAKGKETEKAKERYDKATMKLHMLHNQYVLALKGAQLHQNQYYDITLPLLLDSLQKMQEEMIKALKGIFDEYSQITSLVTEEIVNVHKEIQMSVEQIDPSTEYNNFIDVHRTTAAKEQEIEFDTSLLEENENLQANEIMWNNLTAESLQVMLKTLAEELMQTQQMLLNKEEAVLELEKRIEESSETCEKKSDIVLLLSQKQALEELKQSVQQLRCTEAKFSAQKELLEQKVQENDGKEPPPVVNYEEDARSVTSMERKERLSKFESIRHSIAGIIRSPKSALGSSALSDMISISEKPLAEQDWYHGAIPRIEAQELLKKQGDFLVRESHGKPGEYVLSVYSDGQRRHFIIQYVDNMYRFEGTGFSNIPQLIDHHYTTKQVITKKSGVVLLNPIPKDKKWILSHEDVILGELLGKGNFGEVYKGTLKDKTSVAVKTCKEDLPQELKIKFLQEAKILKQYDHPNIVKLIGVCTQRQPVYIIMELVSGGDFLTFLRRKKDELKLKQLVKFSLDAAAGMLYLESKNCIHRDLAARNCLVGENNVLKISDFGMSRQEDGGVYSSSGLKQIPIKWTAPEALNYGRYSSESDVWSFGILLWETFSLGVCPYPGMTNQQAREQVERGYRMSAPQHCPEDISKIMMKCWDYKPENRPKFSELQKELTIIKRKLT
smiles,measurement,setting,value
CNC(=O)c1ccc2c(c1)C(=O)c1ccc(Nc3ccc(F)c(NC(=O)C4CC4)c3)cc1CC2 [Compound 2015],remaining activity at 0.2 µM,"340 wild-type kinases [1]; 0.2 µM 2015, read-out: RPS6KA4 residual activity",95.3%
same,remaining activity at 1 µM,"340 wild-type kinases [1]; 1 µM 2015, read-out: RPS6KA4 residual activity",89.4%
same,remaining activity at 0.2 µM,"340 wild-type kinases [1]; RPS6KA4, 0.2 µM, read-out: residual activity",95.3%
same,remaining activity at 1 µM,"340 wild-type kinases [1]; RPS6KA4, 1 µM, read-out: residual activity",89.4%
same,remaining activity at 0.2 µM,"340 wild-type kinases [2]; 0.2 µM 2015, read-out: MAP3K11 residual activity",100%
same,remaining activity at 1 µM,"340 wild-type kinases [2]; 1 µM 2015, read-out: MAP3K11 residual activity",93.8%
same,remaining activity at 0.2 µM,"340 wild-type kinases [2]; MAP3K11, 0.2 µM, read-out: residual activity",100%
same,remaining activity at 1 µM,"340 wild-type kinases [2]; MAP3K11, 1 µM, read-out: residual activity",93.8%
same,remaining activity at 0.2 µM,"340 wild-type kinases [3]; 0.2 µM 2015, read-out: FER residual activity",125%
same,remaining activity at 1 µM,"340 wild-type kinases [3]; 1 µM 2015, read-out: FER residual activity",102%
same,remaining activity at 0.2 µM,"340 wild-type kinases [3]; FER, 0.2 µM, read-out: residual activity",125%
same,remaining activity at 1 µM,"340 wild-type kinases [3]; FER, 1 µM, read-out: residual activity",102%
same,remaining activity at 0.2 µM,"340 wild-type kinases [4]; 0.2 µM 2015, read-out: JAK2 residual activity",104%
same,remaining activity at 1 µM,"340 wild-type kinases [4]; 1 µM 2015, read-out: JAK2 residual activity",102%
same,remaining activity at 0.2 µM,"340 wild-type kinases [4]; JAK2, 0.2 µM, read-out: residual activity",104%
same,remaining activity at 1 µM,"340 wild-type kinases [4]; JAK2, 1 µM, read-out: residual activity",102%
same,remaining activity at 0.2 µM,"340 wild-type kinases [5]; 0.2 µM 2015, read-out: ARAF YDYD residual activity",98.8%
same,remaining activity at 1 µM,"340 wild-type kinases [5]; 1 µM 2015, read-out: ARAF YDYD residual activity",106%
same,remaining activity at 0.2 µM,"340 wild-type kinases [5]; ARAF YDYD, 0.2 µM, read-out: residual activity",98.8%
same,remaining activity at 1 µM,"340 wild-type kinases [5]; ARAF YDYD, 1 µM, read-out: residual activity",106%
same,remaining activity at 0.2 µM,"340 wild-type kinases [6]; 0.2 µM 2015, read-out: PKCepsilon residual activity",83.1%
same,remaining activity at 1 µM,"340 wild-type kinases [6]; 1 µM 2015, read-out: PKCepsilon residual activity",90.5%
same,remaining activity at 0.2 µM,"340 wild-type kinases [6]; PKCepsilon, 0.2 µM, read-out: residual activity",83.1%
same,remaining activity at 1 µM,"340 wild-type kinases [6]; PKCepsilon, 1 µM, read-out: residual activity",90.5%
same,remaining activity at 0.2 µM,"340 wild-type kinases [7]; 0.2 µM 2015, read-out: GRK4 residual activity",123%
same,remaining activity at 1 µM,"340 wild-type kinases [7]; 1 µM 2015, read-out: GRK4 residual activity",104%
same,remaining activity at 0.2 µM,"340 wild-type kinases [7]; GRK4, 0.2 µM, read-out: residual activity",123%
same,remaining activity at 1 µM,"340 wild-type kinases [7]; GRK4, 1 µM, read-out: residual activity",104%
same,remaining activity at 0.2 µM,"340 wild-type kinases [8]; 0.2 µM 2015, read-out: CDK10/CycQ residual activity",108%
same,remaining activity at 1 µM,"340 wild-type kinases [8]; 1 µM 2015, read-out: CDK10/CycQ residual activity",97.1%
same,remaining activity at 0.2 µM,"340 wild-type kinases [8]; CDK10/CycQ, 0.2 µM, read-out: residual activity",108%
same,remaining activity at 1 µM,"340 wild-type kinases [8]; CDK10/CycQ, 1 µM, read-out: residual activity",97.1%
same,remaining activity at 0.2 µM,"340 wild-type kinases [9]; 0.2 µM 2015, read-out: ERBB4 residual activity",120%
same,remaining activity at 1 µM,"340 wild-type kinases [9]; 1 µM 2015, read-out: ERBB4 residual activity",101%
same,remaining activity at 0.2 µM,"340 wild-type kinases [9]; ERBB4, 0.2 µM, read-out: residual activity",120%
same,remaining activity at 1 µM,"340 wild-type kinases [9]; ERBB4, 1 µM, read-out: residual activity",101%
same,remaining activity at 0.2 µM,"340 wild-type kinases [10]; 0.2 µM 2015, read-out: CK2alpha1 residual activity",98.8%
same,remaining activity at 1 µM,"340 wild-type kinases [10]; 1 µM 2015, read-out: CK2alpha1 residual activity",95.8%
same,remaining activity at 0.2 µM,"340 wild-type kinases [10]; CK2alpha1, 0.2 µM, read-out: residual activity",98.8%
same,remaining activity at 1 µM,"340 wild-type kinases [10]; CK2alpha1, 1 µM, read-out: residual activity",95.8%
same,remaining activity at 0.2 µM,"340 wild-type kinases [11]; 0.2 µM 2015, read-out: CAMK2D residual activity",98.1%
same,remaining activity at 1 µM,"340 wild-type kinases [11]; 1 µM 2015, read-out: CAMK2D residual activity",95.7%
same,remaining activity at 0.2 µM,"340 wild-type kinases [11]; CAMK2D, 0.2 µM, read-out: residual activity",98.1%
same,remaining activity at 1 µM,"340 wild-type kinases [11]; CAMK2D, 1 µM, read-out: residual activity",95.7%
